US11566007B2, “Ras inhibitors” (Revolution Medicines, Inc., priority 2019, dated 2023)
Like-named read-outs stand apart in the source and are kept apart here.

Experiments:
[1] = molecular target: KRAS G13D (Homo sapiens (Human), UniProt P01116+P62937, G13D); experiment: Ras-Raf (BRAF RBD) disruption / FRET / MOA assay, KRAS G13D; format: biochemical
Procedure, shortened: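 Compound-driven ternary complex of nucleotide-loaded Ras with cyclophilin A, disrupting BRAF RBD binding. 10-point 3-fold dilution from 30 μM final, 3 h at 25° C, then anti-His Eu-W1024 (10 nM) and anti-GST allophycocyanin (50 nM) for 1.5 h. IC50 from TR-FRET ratio decrease versus DMSO.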

[2] = system: NCI-H358 cells (K-Ras G12C); experiment: Potency assay: pERK in NCI-H358 cells; format: cell-based, human; details: Homo sapiens, NCI-H358; H358 KRAS G12C; read-out: pERK EC50
Procedure, shortened: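 Compounds are dosed as ten 3-fold dilutions from a 10 mM DMSO stock, in duplicate, and left on cells for 4 h at 37 °C, 5% CO2. Phospho-ERK1/2 is then quantified by AlphaLISA SureFire Ultra or In-Cell Western, and IC50 is derived from a 4-parameter sigmoid against log concentration.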

[3] = read-out: IC50* KRAS G13D FRET data

Chain of KRAS G13D (P01116-2 other isoform, or with tags, fused parts or gaps G13D): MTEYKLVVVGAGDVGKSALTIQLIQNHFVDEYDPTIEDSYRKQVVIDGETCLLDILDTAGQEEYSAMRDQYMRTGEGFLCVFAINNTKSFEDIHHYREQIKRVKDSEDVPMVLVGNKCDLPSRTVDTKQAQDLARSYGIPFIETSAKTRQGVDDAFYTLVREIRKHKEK
Chain of KRAS G13D (P62937 whole entry): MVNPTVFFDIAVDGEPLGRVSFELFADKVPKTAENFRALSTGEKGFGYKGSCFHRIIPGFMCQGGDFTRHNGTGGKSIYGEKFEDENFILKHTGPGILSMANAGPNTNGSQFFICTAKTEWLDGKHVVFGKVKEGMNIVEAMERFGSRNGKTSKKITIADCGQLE

SMILES | IC50 [1, 3] | EC50 [2] | IC50 ([1]; IC50* KRAS G13D FRET data)
CCn1c(-c2cccnc2[C@H](C)OC)c2c3cc(ccc31)-c1cccc(c1)C[C@H](NC(=O)[C@H](C(C)C)N1CC[C@@]3(CCN(C(=O)C#C[C@H]4COCCN4C)C3)C1=O)C(=O)N1CCC[C@H](N1)C(=O)OCC(C)(C)C2 (atropisomer, axis not shown) [Example A551] | 1 to 10 µM | < 5 µM | –
CCn1c(-c2cccnc2[C@H](C)OC)c2c3cc(ccc31)-c1cccc(c1)C[C@H](NC(=O)[C@H](C(C)C)N1CO[C@@]3(CCN(C(=O)/C=C/CN(C)C)C3)C1=O)C(=O)N1CCC[C@H](N1)C(=O)OCC(C)(C)C2 (atropisomer, axis not shown) [Example A558] | 0.1 to 1 µM | < 5 µM | –
CO[C@@H](COC1CN(C(=O)C#CC(C)(C)N(C)C)C1)C(=O)N[C@H]1Cc2coc(n2)-c2ccc3c(c2)c(c(-c2cccnc2[C@H](C)OC)n3CC(F)(F)F)CC(C)(C)COC(=O)[C@@H]2CCCN(N2)C1=O (atropisomer, axis not shown) [Example A579] | > 10 µM | < 5 µM | –
C=CC(=O)N1CCO[C@H]2CCN(C(=O)N(C)[C@H](C(=O)N[C@H]3Cc4nc(cs4)-c4ccc5c(c4)c(c(-c4cccnc4[C@H](C)OC)n5CC)CC(C)(C)COC(=O)[C@@H]4CCCN(N4)C3=O)C(C)C)C[C@H]21 (atropisomer, axis not shown) [Example A580] | 0.1 to 1 µM | < 5 µM | –
C=CC(=O)NCCN1CCN(C(=O)N(C)[C@H](C(=O)N[C@H]2Cc3nc(cs3)-c3ccc4c(c3)c(c(-c3cccnc3[C@H](C)OC)n4CC)CC(C)(C)COC(=O)[C@@H]3CCCN(N3)C2=O)C(C)C)CC1 (atropisomer, axis not shown) [Example A582] | 0.1 to 1 µM | < 5 µM | –
CCn1c(-c2cccnc2[C@H](C)OC)c2c3cc(ccc31)-c1cccc(c1)C[C@H](NC(=O)[C@@H](CO[C@@H]1CCN(C(=O)C#CC(C)(C)N(C)C)C1)C(C)C)C(=O)N1CCC[C@H](N1)C(=O)OCC(C)(C)C2 (atropisomer, axis not shown) [Example A584] | > 10 µM | < 5 µM | –
CCn1c(-c2cccnc2[C@H](C)OC)c2c3cc(ccc31)-c1cc(CF)cc(c1)C[C@H](NC(=O)[C@@H](COC1CN(C(=O)C#CC(C)(C)N(C)C)C1)C(C)C)C(=O)N1CCC[C@H](N1)C(=O)OCC(C)(C)C2 (atropisomer, axis not shown) [Example A587] | > 10 µM | < 5 µM | –
CO[C@@H](C)c1ncccc1-c1c2c3cc(ccc3n1CC(F)(F)F)-c1cc(CF)cc(c1)C[C@H](NC(=O)[C@@H](COC1CN(C(=O)C#CC(C)(C)N(C)C)C1)C(C)C)C(=O)N1CCC[C@H](N1)C(=O)OCC(C)(C)C2 (atropisomer, axis not shown) [Example A589] | > 10 µM | < 5 µM | –
CO[C@@H](C)c1ncccc1-c1c2c3cc(ccc3n1CC(F)(F)F)-c1nc(ns1)C[C@H](NC(=O)[C@@H](COC1CN(C(=O)C#CC(C)(C)N(C)C)C1)C(C)C)C(=O)N1CCC[C@H](N1)C(=O)OCC(C)(C)C2 (atropisomer, axis not shown) [Example A590, (2R)-2-(((1-(4-(dimethylamino)-4-methylpent-2-ynoyl)azetidin-3-yl)oxy)methyl)-N-((6^3S,4S,Z)-1^2-(2-((S)-1-methoxyethyl)pyridin-3-yl)-10,10-dimethyl-5,7-dioxo-1^1-(2,2,2-trifluoroethyl)-6^1,6^2,6^3,6^4,6^5,6^6-hexahydro-1^1H-8-oxa-2(5,3)-thiadiazola-1(5,3)-indola-6(1,3)-pyridazinacycloundecaphane-4-yl)-3-methylbutanamide] | > 10 µM | < 5 µM | –
C=CC(=O)N1CCO[C@@]2(CCN(C(=O)N(C)[C@H](C(=O)N[C@H]3Cc4nc(cs4)-c4ccc5c(c4)c(c(-c4cccnc4[C@H](C)OC)n5CC(F)(F)F)CC(C)(C)COC(=O)[C@@H]4CCCN(N4)C3=O)C(C)C)C2)C1 (atropisomer, axis not shown) [Example A594] | – | < 5 µM | 0.1 to 1 µM
